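Dose response: 5 concentrations. Exposure: 48 h. Format: 96-well plates. Endpoint: linear interpolation; highest concentration if not reached. Here, GI50 denotes the concentration required for 50% inhibition of growth.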 Active and inactive are the calls of the source. Cut-off read from the data, not from the text of the source: active = GI50 up to about 1.1 µM and inactive = higher.
Key:
Assay in all cases: inhibition of tumour cell growth, NCI panel, 48 h
[1] = system: MDA-N
[2] = system: MDA-MB-435
[3] = system: SK-MEL-2
[4] = system: RXF 393
[5] = system: SF-268
[6] = system: KM12
[7] = system: SN12C
[8] = system: RPMI-8226
[9] = system: SW-620
[10] = system: HCT-116
[11] = system: A549
[12] = system: SK-MEL-5
[13] = system: T47D
[14] = system: HL-60
[15] = system: K562
[16] = system: MOLT-4
[17] = system: UACC-62
[18] = system: LOX IMVI
[19] = system: A498
[20] = system: IGROV-1
[21] = system: CCRF-CEM
[22] = system: M14
[23] = system: SR
[24] = system: PC-3
[25] = system: HCT-15
[26] = system: HT-29
[27] = system: DU-145
[28] = system: SNB-19
[29] = system: Malme-3M
[30] = system: OVCAR-8
[31] = system: NCI-H23
[32] = system: NCI-H460
[33] = system: UACC-257
[34] = system: COLO 205
[35] = system: U-251
[36] = system: HOP-62
[37] = system: NCI/ADR-RES
[38] = system: SF-295
[39] = system: OVCAR-5
[40] = system: UO-31
[41] = system: ACHN
[42] = system: SNB-75
[43] = system: HCC 2998
[44] = system: 786-0
[45] = system: OVCAR-3
[46] = system: SK-MEL-28
[47] = system: MDA-MB-231
[48] = system: NCI-H522
[49] = system: HOP-92
[50] = system: SF-539
[51] = system: OVCAR-4
[52] = system: EKVX
[53] = system: Hs-578T
[54] = system: NCI-H226
[55] = system: BT-549
[56] = system: CAKI-1
[57] = system: TK-10
[58] = system: MCF7

In the case of `C#CCCOC1(OC)N=NC(C)(C)O1` (stereo not drawn), the GI50 [1] is reported as > 100 µM (inactive), the GI50 [2] is reported as > 100 µM (inactive) and the GI50 [3] is reported as > 100 µM (inactive). The GI50 [4] was > 100 µM (inactive), the GI50 [5] was > 100 µM (inactive) and the GI50 [6] was > 100 µM (inactive). The GI50 [7] was > 100 µM (inactive), the GI50 [8] was > 100 µM (inactive) and the GI50 [9] was > 100 µM (inactive). The GI50 [10] was > 100 µM (inactive), the GI50 [11] was > 100 µM (inactive) and the GI50 [12] was > 100 µM (inactive). The GI50 [13] was > 100 µM (inactive), the GI50 [14] was > 100 µM (inactive) and the GI50 [15] was > 100 µM (inactive). For the same compound, the GI50 [16] was > 100 µM (inactive), the GI50 [17] was > 100 µM (inactive) and the GI50 [18] was > 100 µM (inactive). The GI50 [19] was > 100 µM (inactive), the GI50 [20] was > 100 µM (inactive) and the GI50 [21] was > 100 µM (inactive). For the same compound, the GI50 [22] was > 100 µM (inactive), the GI50 [23] was > 100 µM (inactive) and the GI50 [24] was > 100 µM (inactive). The GI50 [25] was > 100 µM, the GI50 [26] was > 100 µM (inactive) and the GI50 [27] was > 100 µM (inactive). For the same compound, the GI50 [28] was > 100 µM (inactive), the GI50 [29] was > 100 µM (inactive) and the GI50 [30] was > 100 µM (inactive). The GI50 [31] was > 100 µM (inactive), the GI50 [32] was > 100 µM (inactive) and the GI50 [33] was > 100 µM (inactive). The GI50 [34] was > 100 µM (inactive), the GI50 [35] was > 100 µM (inactive) and the GI50 [36] was > 100 µM (inactive). For the same compound, the GI50 [37] was > 100 µM (inactive), the GI50 [38] was > 100 µM (inactive) and the GI50 [39] was > 100 µM (inactive). The GI50 [40] was > 100 µM (inactive), the GI50 [41] was > 100 µM (inactive) and the GI50 [42] was > 100 µM (inactive). The GI50 [43] was > 100 µM (inactive), the GI50 [44] was > 100 µM (inactive) and the GI50 [45] was > 100 µM (inactive). The GI50 [46] was > 100 µM (inactive), the GI50 [47] was > 100 µM (inactive) and the GI50 [48] was > 100 µM (inactive). The GI50 [49] was > 100 µM (inactive), the GI50 [50] was > 100 µM (inactive) and the GI50 [51] was > 100 µM (inactive). For the same compound, the GI50 [52] was > 100 µM (inactive), the GI50 [53] was > 100 µM (inactive) and the GI50 [54] was > 100 µM (inactive).

In the case of `O=C=NCCCCCCN1C(=O)N2C(c3ccccc3)N(CCCCCCN=C=O)C(=O)N2C1c1ccccc1` (stereo not drawn), the GI50 [1] is reported as > 100 µM (inactive), the GI50 [2] is reported as > 100 µM (inactive) and the GI50 [3] is reported as > 100 µM (inactive). The GI50 [4] was > 100 µM (inactive), the GI50 [5] was > 100 µM (inactive) and the GI50 [55] was > 100 µM (inactive). The GI50 [6] was > 100 µM (inactive), the GI50 [7] was > 100 µM (inactive) and the GI50 [8] was 55 µM (inactive). For the same compound, the GI50 [9] was > 100 µM (inactive), the GI50 [10] was > 100 µM (inactive) and the GI50 [11] was > 100 µM (inactive). For the same compound, the GI50 [12] was > 100 µM (inactive), the GI50 [14] was > 100 µM (inactive) and the GI50 [15] was > 100 µM (inactive). The GI50 [16] was 62.1 µM (inactive), the GI50 [18] was > 100 µM (inactive) and the GI50 [56] was > 100 µM (inactive). The GI50 [19] was > 100 µM (inactive), the GI50 [20] was > 100 µM (inactive) and the GI50 [21] was 79.3 µM (inactive). The GI50 [22] was > 100 µM (inactive), the GI50 [23] was 65.2 µM (inactive) and the GI50 [24] was > 100 µM (inactive). For the same compound, the GI50 [25] was > 100 µM, the GI50 [26] was > 100 µM (inactive) and the GI50 [27] was > 100 µM (inactive). For the same compound, the GI50 [28] was > 100 µM (inactive), the GI50 [29] was > 100 µM (inactive) and the GI50 [30] was > 100 µM (inactive). The GI50 [31] was > 100 µM (inactive), the GI50 [32] was > 100 µM (inactive) and the GI50 [33] was > 100 µM (inactive). For the same compound, the GI50 [34] was > 100 µM (inactive), the GI50 [35] was > 100 µM (inactive) and the GI50 [36] was > 100 µM (inactive). The GI50 [37] was > 100 µM (inactive), the GI50 [38] was > 100 µM (inactive) and the GI50 [57] was > 100 µM (inactive). For the same compound, the GI50 [39] was > 100 µM (inactive), the GI50 [40] was > 100 µM (inactive) and the GI50 [41] was > 100 µM (inactive). For the same compound, the GI50 [42] was > 100 µM (inactive), the GI50 [43] was > 100 µM (inactive) and the GI50 [44] was > 100 µM (inactive). For the same compound, the GI50 [45] was > 100 µM (inactive), the GI50 [58] was > 100 µM (inactive) and the GI50 [46] was > 100 µM (inactive). The GI50 [47] was > 100 µM (inactive), the GI50 [49] was > 100 µM (inactive) and the GI50 [50] was > 100 µM (inactive). The GI50 [51] was > 100 µM (inactive), the GI50 [52] was > 100 µM (inactive) and the GI50 [54] was > 100 µM (inactive).
